For orientation: IC50 means the concentration needed to halve the response being measured. Low readings indicate greater potency in that assay, high ones weaker potency in that assay.

The target in the assay is human TrkA receptor (Homo sapiens (Human), UniProt P04629). As to the kind of experiment: TrkA functional activity, DiscoverX PathHunter assay (NGF-stimulated U2OS cells). It is filed as cell-based. The following applies: U2OS cells expressing human TrkA-Prolink, Shc1-EA and p75NTR; compound 1 h, then NGF (~80% of maximal response) 3 h; luminescence. In a few lines:
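U2OS cells co-expressing human TrkA-PK fusion, Shc1-EA and p75NTR were pre-incubated 1 h with compound, then stimulated 3 h at ambient temperature with NGF at ~EC80. Shc1 recruitment to phosphorylated TrkA read as β-galactosidase complementation by chemiluminescence after 1 h detection.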

Sequence of human TrkA receptor (P04629 33-796): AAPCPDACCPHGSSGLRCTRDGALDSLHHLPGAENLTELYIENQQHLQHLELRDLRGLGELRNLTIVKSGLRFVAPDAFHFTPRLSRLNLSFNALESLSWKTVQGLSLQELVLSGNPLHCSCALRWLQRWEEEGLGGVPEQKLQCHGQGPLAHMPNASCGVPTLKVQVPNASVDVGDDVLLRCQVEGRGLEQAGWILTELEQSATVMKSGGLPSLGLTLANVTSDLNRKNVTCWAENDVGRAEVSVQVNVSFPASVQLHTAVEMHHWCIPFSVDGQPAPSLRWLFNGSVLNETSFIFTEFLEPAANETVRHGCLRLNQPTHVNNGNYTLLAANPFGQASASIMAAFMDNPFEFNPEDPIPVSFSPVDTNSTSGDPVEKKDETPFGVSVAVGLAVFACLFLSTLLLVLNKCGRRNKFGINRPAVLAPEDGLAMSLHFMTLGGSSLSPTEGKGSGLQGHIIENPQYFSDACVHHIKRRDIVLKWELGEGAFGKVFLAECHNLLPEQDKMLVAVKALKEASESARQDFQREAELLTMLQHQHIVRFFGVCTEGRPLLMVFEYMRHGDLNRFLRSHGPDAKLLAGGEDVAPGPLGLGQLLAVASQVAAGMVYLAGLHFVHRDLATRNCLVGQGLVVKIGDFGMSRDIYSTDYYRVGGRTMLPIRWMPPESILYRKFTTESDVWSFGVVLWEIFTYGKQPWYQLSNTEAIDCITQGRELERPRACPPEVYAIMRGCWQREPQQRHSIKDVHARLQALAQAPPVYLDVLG

As for `Cn1ccc(-c2cc(C(=O)Nc3c(-c4ccccc4)ncn4c(CO)cnc34)c(F)cc2C(F)(F)F)n1` [Compound 70, 2-Fluoro-N-(3-(hydroxymethyl)-7-phenylimidazo[1,2-c]pyrimidin-8-yl)-5-(1-methyl-1H-pyrazol-3-yl)-4-(trifluoromethyl)benzamide], 1.2 nM corresponded to half-maximal inhibition (IC50).

Regarding `CC(C)(O)c1cnc2c(NC(=O)c3cc(-c4ncccn4)c(C(F)(F)F)cc3F)c(-c3ccccc3)ncn12` [Compound 73, 2-Fluoro-N-(3-(2-hydroxypropan-2-yl)-7-phenylimidazo[1,2-c]pyrimidin-8-yl)-5-(pyrimidin-2-yl)-4-(trifluoromethyl)benzamide], inhibition was half-maximal at 4.8 nM (IC50).

The values are drawn from US10556900B2, “TrkA kinase inhibitors, compositions and methods thereof” (Merck Sharp & Dohme Corp., priority 2015, dated 2020).
